18 molecules from patent US6602914B2, “Compounds and methods for the inhibition of the expression of VCAM-1” (AtheroGenics, Inc., priority 1997, dated 2003) can be followed below.

The first assay concerns VCAM-1. Briefly: VCAM-1 Assay: TNF-stimulated cells, cell-surface ELISA. Format: cell-based. The conditions noted are these: bare number = IC50; NE not defined in the patent; read-out: VCAM-1 IC50 or % inhibition at [μM]: IC50. The procedure:
Two to four confluent P150 plates are trypsinized and the cells transferred to a 50 mL conical centrifuge tube. The cells are pelleted, resuspended, and counted using the trypan blue exclusion method.
Cells are resuspended at a concentration of 36,000 cells/mL and 1 mL is aliquoted per well.
Cells are split into 24 well tissue culture plates. The cells in each well should be approximately 90-95% confluent by the following day. Cells should not be older than passage 8.
Compounds are initially screened at 50 μM and 10 μM. A 50 mM stock solution for each compound is prepared in culture medium. The stock solution is diluted to 5 mM and 1 mM. When 10 μL of the 5 mM solution is added to the well (1 mL medium/well), the final concentration will be 50 μM. Adding 10 μL of the 1 mM solution to the well will give a final concentration of 10 μM.
Compounds which will not go into solution in culture medium are resuspended in DMSO at a concentration of 25 mM. The stock solution is then diluted to the final concentration in culture medium. The old medium is aspirated and 1 mL of the new medium with the compound is added. For example, if the final concentration is 50 μM, the 2 μL of the 25 mM stock is added per mL of culture medium. The […] solution is diluted for lower concentrations.
The compounds are added to the plate (each compound is done in duplicate). One plate is done for VCAM expression and one plate is done for ICAM expression.
Immediately after the compounds are added, TNF is added to each well. 100 units/mL TNF is usually added to each well. Since each lot of TNF varies in the number of units, each new lot is titrated to determine the optimum concentration. Therefore this concentration will change. If 100 units/mL is bing used, dilute the TNF to 10 units/μL and add 10 μL to each well.
The plates are incubated at 37° C., 5% CO2 overnight (approximately 16 hours). The next day the plates are checked under the microscope to see if there are any visual signs of toxicity. Records are made of any cell death, debris, or morphology changes, as well as insoluble compounds (particulate or turbity).
In order to assess MCP-1, the media (500 μL) is saved and frozen at −70° C. Wash cells once with roughly 1 ml/well of Hanks Balance Salt Solution (HBSS) or PBS. Gently empty the wash solution and then tap the plate onto paper towels. Add either 250 μL/well of HBSS +5% FCCS to the plank (no primary antibody wells) or 250 μL/well of primary antibody diluted in HBSS +5% FCS. Incubate for 30 minutes at 37° C. Wash the wells twice with 0.5 mL/well HBSS or PBS and gently tap the plates onto paper towels after the last wash. Add 250 μL/well of HRP-conjugated second antibody diluted in HBSS +5% FCS to every well including the blank wells (no primary antibody). Incubate at 37° C. for 30 minutes. Wash the wells four times with 0.5 mL/well HBSS or PBS and gently tap the plates onto paper towels after the last wash. Add 250 μL/well of substrate solution. Incubate at room temperature in the dark until there is adequate color development (blue). Note the length of time incubation was performed (typically 15-30 minutes). Add 75 μL/well stopper solution (8N sulfuric acid), and read A450 nm.
For “2,6-di-tert-butyl-4-thio(3′,5′-ditert-butyl,4′-hydroxy butanedioic acid ester)phenol”, the IC50 came out at 6 µM.
For `CC(=O)OC(C)(C)CSc1cc(C(C)(C)C)c(O)c(C(C)(C)C)c1` [2,6-di-tert-butyl-4-thio(2′-acetoxy,2′-methylpropyl)phenol], the IC50 came to 50 µM.

In a further assay the test system is ApoB/HepG2. Briefly: Lipid Screen & IC50 Determination Protocol: ApoB ELISA of HEPG2 media. Format: cell-based, human. To be noted: HEPG2, 24 hours; bare number = IC50; NE not defined in the patent; read-out: ApoB/HepG2 IC50 or % inhibition at [μM]: IC50. The procedure: HEPG2 cell was started in 10 ml of MEM, 10% FBS, 1 mM Sodium Pyruvate. The cells were incubated in a tissue culture incubator. The cells were split into 4×96-wells plate in MEM, 10% FBS, 1 mM Sodium Pyruvate and allowed to grow to about 50% confluency and then removed.
The cells were treated with the desired concentration of compounds in 100 μl DMEM, 1% RSA for 24 hours. The compounds are dissolved in DMSO.
On the same day, 4×96-wells NuncImmunoSorb plate is coated with 100 μl of mouse anti-human ApoB monoclonal 1D1 (1:1000 dilution in 1×PBS, pH 7.4). The coating is allowed overnight.
The coated plate is washed 3 times with 1×PBS, pH 7.4, −0.05% Tween 20. 100 μl of the standards is added to the selected wells. ApoB standards are prepared at 6.25, 3.12, 1.56, 0.78, 0.39 ng, and each concentration is done in triplicates. For samples:
90 μl of 1×PBS, pH 7.4, −0.05% Tween 20 is added to each well corresponding to the sample. 10 μl of media is transferred from the treated HEPG2 plates to the ApoB ELISA plate. The plate is incubated at room temperature for 2 hours, rocking gently.
Wash the coated plate 3× with 1×PBS, pH 7.4, −0.05% Tween 20. Add 100 μl of sheep anti-human ApoB polyclonal from Boehringer Mannheim. (1:2000 dilution in 1×PBS, pH 7.4, −0.05% Tween 20) from Boehringer Mannheim. Incubate at room temperature for 1 hour, rocking gently. Wash the coated plate 3× with 1×PBS, pH 7.4, −0.05% Tween 20. Add 100 μl of rabbit anti-sheep IgG (1:2000 dilution in 1×PBS, pH 7.4, −0.05% Tween 20). Incubate at room temperature for 1 hour, rocking gently. Wash the coated plate 3× with 1×PBS, pH 7.4, −0.05% Tween 20. Add 100 μl of substrate (10 ml of distilled water, 100 μl of TMB (10 mg/ml), and 1 μl of hydrogen peroxide). Allow color to emerge and stop reaction with 25 ul of 8N sulfuric acid. Wells are read with MicroPlate Reader @ […]. Graph accumulation of ApoB in media as a percentage of control for each sample and their concentration. A determination of IC50 is obtained from the graph.
The degree of inhibition of the compounds of formulas (I) and (II) was determined by the assays described in Examples 62-64.
Turning to `COc1c(C(C)(C)C)cc(SCc2ccc(C(F)(F)F)cc2)cc1C(C)(C)C` [2,6-di-tert-butyl-1-methoxy-4-thio(4′-trifluoromethyl)benzyl)benzene], the IC50 was < 10 µM.
On to `CCCCC(OC(C)=O)Sc1cc(C(C)(C)C)c(O)c(C(C)(C)C)c1` (stereo not drawn) [2,6-di-tert-butylthio((1′-(acetoxy))pentyl)phenol], for which the IC50 was found to be 30 µM.

Still in this assay, the particulars now being: Homo sapiens; at 5 μM; HEPG2, 24 hours.
`CC(C)(Sc1cc(C(C)(C)C)c(O)c(C(C)(C)C)c1)Sc1cc(C(C)(C)C)c(OC(=O)CN)c(C(C)(C)C)c1` [Glycine, 4-[[1-[[3,5-bis(1,1-dimethylethyl)-4-hydroxyphenyl]thio]-1-methylethyl]thio]-2,6-bis(1,1-dimethylethyl)phenyl ester] showed an inhibition at 5 µM of 30%.

Staying with this assay, now noted: Homo sapiens; at 15 μM; HEPG2, 24 hours.
For the molecule `CC(C)(Sc1cc(C(C)(C)C)c(O)c(C(C)(C)C)c1)Sc1cc(C(C)(C)C)c(OCC(O)CO)c(C(C)(C)C)c1` (stereo not drawn) [1,2-Propanediol, 3-[4-[[1-[[3,5-bis(1,1-dimethylethyl)-4-hydroxyphenyl]thio]-1-methylethyl]thio]-2,6-bis(1,1-dimethylethyl)phenoxy]-], at 15 µM the inhibition was 40%.
`CC(C)(Sc1cc(C(C)(C)C)c(O)c(C(C)(C)C)c1)Sc1cc(C(C)(C)C)c(OC(=O)c2ccc([N+](=O)[O-])o2)c(C(C)(C)C)c1` [2-Furancarboxylic acid, 5-nitro-, 4-[[1-[[3,5-bis(1,1-dimethylethyl)-4-hydroxyphenyl]thio]-1-methylethyl]thio]-2,6-bis(1,1-dimethylethyl)phenyl ester] gave an inhibition at 15 µM of 17%.
Turning to `CC(C)(Sc1cc(C(C)(C)C)c(O)c(C(C)(C)C)c1)Sc1cc(C(C)(C)C)c(OCCCC(=O)O)c(C(C)(C)C)c1` [Butanoic acid, 4-[4-[[1-[[3,5-bis(1,1-dimethylethyl)4-hydroxyphenyl]thio]-1-methylethyl]thio]-2,6-bis(1,1-dimethylethyl)phenoxy]-], the inhibition at 15 µM came out at 77%.
With `Cc1cc(SC(C)(C)Sc2cc(C(C)(C)C)c(O)c(C(C)(C)C)c2)cc(C)c1OCCCC(=O)O` [Butanoic acid, 4-[4-[[1-[[3,5-bis(1,1-dimethylethyl)-4-hydroxyphenyl]thio]-1-methylethyl]thio]2,6-dimethylphenoxy]-], the inhibition at 15 µM came to 41%.
`CC(C)(Sc1ccc(OCCCC(=O)O)cc1)Sc1cc(C(C)(C)C)c(O)c(C(C)(C)C)c1` [Butanoic acid, 4-[4-[[1-[[3,5-bis(1,1-dimethylethyl)-4-hydroxyphenyl]thio]-1-methylethyl]thio]phenoxy]-]: the inhibition at 15 µM was determined as 47%.
Turning to `CC(C)(CO)CC(=O)Oc1c(C(C)(C)C)cc(SC(C)(C)Sc2cc(C(C)(C)C)c(O)c(C(C)(C)C)c2)cc1C(C)(C)C` [Butanoic acid, 4-hydroxy-3,3-dimethyl-, 4-[[1-[[3,5-bis(1,1-dimethylethyl)-4-hydroxyphenyl]thio]-1-methylethyl]thio]-2,6-bis(1,1-dimethylethyl)phenyl ester], […] µM produced 90% inhibition.
`CC(C)(Sc1cc(C(C)(C)C)c(O)c(C(C)(C)C)c1)Sc1cc(C(C)(C)C)c(OCC(=O)N[C@@H](CCC(=O)O)C(=O)O)c(C(C)(C)C)c1` [Glutamic acid, N-[[4-[[1-[[3,5-bis(1,1-dimethylethyl)-4-hydroxyphenyl]thio]-1-methylethyl]thio]-2,6-bis(1,1-dimethylethyl)phenoxy]acetyl]-] came in with an inhibition at 15 µM of 94%.
As to `CC(C)(Sc1cc(C(C)(C)C)c(O)c(C(C)(C)C)c1)Sc1cc(C(C)(C)C)c(OCC(O)CNCC(=O)O)c(C(C)(C)C)c1` (stereo not drawn) [Glycine, N-[3-[4-[[1-[(3,5-bis(1,1-dimethylethyl)-4-hydroxyphenyl]thio]-1-methylethyl]thio]-2,6-bis(1,1-dimethylethyl)phenoxy]2-hydroxypropyl]-], testing at 15 µM gave an inhibition of 45%.

Still in this assay, the particulars now being: at 1 μM; HEPG2, 24 hours.
For “1,2,3-Butanetriol, 4-[4-[[1-[[3,5-bis(1,1-dimethylethyl)-4-hydroxyphenyl]thio]=1-methylethyl]thio]-2,6-bis(1,1-dimethylethyl)phenoxy]-2-hydroxypropyl]-”, the “ApoB/HepG2 % inhibition at [μM]” value is 6% at 1.

Still in this assay, the particulars now being: at 15 μM; HEPG2, 24 hours.
`COc1c(C(C)(C)C)cc(SC(C)(C)Sc2cc(C(C)(C)C)c(OC(=O)CCC(=O)O)c(C(C)(C)C)c2)cc1C(C)(C)C` [Butanedioic acid, mono[4-[[1-[[3,5-bis(1,1-dimethylethyl)-4-methoxyphenyl]thiol]1-methylethyl]thiol-2,6-bis(1,1-dimethylethyl)phenyl] ester]: the “ApoB/HepG2 % inhibition at [μM]” value was determined as 89% at 15.
Turning to `CC(C)(Sc1cc(C(C)(C)C)c(O)c(C(C)(C)C)c1)Sc1cc(C(C)(C)C)c(OC(=O)CCCO)c(C(C)(C)C)c1` [Butanoic acid, 4-hydorxy-, 4-[[1-[[3,5-bis(1,1-dimethylethyl)-4-hydroxyphenyl]thio]-1-methylethyl]thio]-2,6-bis(1,1-dimethylethyl)phenyl ester], the “ApoB/HepG2 % inhibition at [μM]” value is 81% at 15.
Still for that read-out and setting: as for `CC(C)(Sc1cc(C(C)(C)C)c(O)c(C(C)(C)C)c1)Sc1cc(C(C)(C)C)c(OCC(=O)NCC(=O)O)c(C(C)(C)C)c1` [Glycine, N-[[4-[[1-[[3,5-bis(1,1-dimethylethyl)-4-hydroxyphenyl]thio]-1,methylethyl]thio]-2,6-bis(1,1-dimethylethyl)phenoxylacetyl]-], the figure is 83% at 15; as for `CC(C)(Sc1cc(C(C)(C)C)c(O)c(C(C)(C)C)c1)Sc1cc(C(C)(C)C)c(OC(=O)CCC(=O)O)c(C(C)(C)C)c1.N=C(N)NCCC[C@H](N)C(=O)O` [L-Arginine, mono[4-[[1-[[3,5-bis(1,1-dimethylethyl)-4-hydroxyphenyl]thio]-1-methylethyl]thio]-2,6-bis(1,1-dimethylethyl)phenyl butanedioate]], 93% at 15.
